Experimental data from US11352551B2, “Proppant coatings containing antimicrobial agents” (Agienic, Inc., priority 2012, dated 2022).

Legend:
[1] = room temperature; cited from earlier work
[2] = tested on: Desulfovibrio vulgaris (ATCC 29579); assay: Activity against sulfate reducing bacteria (3-tube most probable number method); format: cell-based; conditions: 10 ppm (copper or gluteraldehyde); one hour; start 2×10^7 mpn/ml; SRB2 media

| SMILES | Water solubility [1] | log10 reduction of D. vulgaris [2] |
| --- | --- | --- |
| [Cu][Br] [CuBr, Copper(I) bromide] | 0.011 mg/mL |  |
| [Cl][Cu][Cl] [CuCl2, copper (II) chloride] |  | less than 3 log10 |
| O=CCCCC=O [gluteraldehyde] |  | greater than 4.23 log10 |
| [Cl-].[Cl-].[Zn+2] [ZnCl2, zinc chloride] | 4300 mg/mL |  |
